Reference: US10302631B2, “Genetically encoded probe for quantification of pyruvate concentration and methods of using the same” (CENTRO DE ESTUDIOS CLENTIFICOS DE VALDIVIA, priority 2013, dated 2019)

How the values were obtained:
[1] = test system: Pyronic; experiment: Specificity: effect of a panel of metabolites on the purified sensor and on its response to pyruvate; format: biochemical, Escherichia coli
Description: The specificity was investigated by exposing the sensor to high concentrations of a panel of metabolites of natural occurrence (FIG. 9). From the chosen set of molecules, citrate and oxalacetate produced a modest effect at 1 mM, and a very small at 100 μM Oxalacetate levels are in the low micromolar range and should not affect the pyruvate sensor, and cytosolic citrate levels are below 100 μM (Siess et al., 1978; Kauppinen et al., 1982), and therefore should have a negligible effect on the pyruvate sensor. Further to explore the specificity, the effect of a panel of metabolites on the response of the sensor to pyruvate was explored (FIGS. 10, 11 and 12). […] The response of the sensor to pyruvate was insensitive to the extreme values of the redox ratio, achieved by manipulating NAD^+ and NADH (FIG. 13).
Fluorescence Measurements. Nickel-purified proteins were resuspended at 100 nM in an intracellular buffer containing (mM): 10 NaCl, 130 KCl, 1.25 MgSO4 and 10 HEPES, pH 7.0, and measured with a microplate reader analyzer (EnVision, PerkinElmer). The proteins were excited at 430 nm and the intensity of fluorescence emission of mTFP and Venus were recorded at 485 nm (FmTFP) and 528 nm (FVenus), respectively. The ratio (R) between FmTFP and FVenus was used to characterize the sensors. Emission spectra were obtained at 430 nm excitation, with 2 nm windows. Cells were imaged at room temperature (22-25° C.) in a 95% air/5% CO2-gassed solution of the following composition (in mM): 112 NaCl, 1.25 CaCl2, 1.25 MgSO4, 1-2 glucose, 10 HEPES, 24 NaHCO^3, pH 7.4, with 3 mM KCl (astrocytes) or 5 mM KCl (HEK and T98G) using an upright Olympus FV1000 Confocal Microscope equipped with a 20× water immersion objective (N.A. 1.0) and a 440 nm solid-state laser. Alternatively, cells were imaged with an Olympus IX70 or with an Olympus BX51 microscope equipped with a 40× oil-immersion objective (NA 1.3) or with a 20× water-immersion objective (NA 0.95). Microscopes were equipped with CAIRN monochromators (Faversham, UK), and either a Hamamatsu Orca camera controlled by Kinetics software or a Rollera camera controlled with Metafluor software, respectively. For sensor ratio measurements, cells were excited at 430 nm for 0.2-0.8 s. Emission was divided with a CAIRN Optosplit, equipped with band pass filters at 480±20 (FmTFP) and 535±15 nm (FVenus). The ratio between FmTFP and FVenus was used to measure pyruvate.

[2] = test system: monocarboxylate transporter (MCT); experiment: Initial rate of uptake of 1 mM pyruvate measured with the sensor, inhibition by MCT blockers; format: cell-based, mice; conditions: astrocytic uptake
Description: In this first embodiment, with the information obtained in the calibration step, the disruption of the steady-state of pyruvate entering the cell is carried out by altering the extracellular concentration of pyruvate, thus exposing the cells to pyruvate. This causes a rise in intracellular pyruvate that is monitored with the pyruvate sensor and whose initial rate is independent of pyruvate metabolism and can be used to estimate kinetic parameters (FIG. 18). Exposure of the cells to increasing concentrations of pyruvate allows the estimation of kinetic parameters for the pyruvate transporter. Kinetic parameters are also obtained from the decrease in intracellular pyruvate after removal of extracellular pyruvate. The identity of the transport pathway for pyruvate can be determined by the use of pharmacological blockers of specific transporter proteins, such as phloretin or AR-C155858 (FIG. 18 and FIG. 19), or other such as parachloromercurybenzoate, anti-MCT antisera, etc., or with compounds that interfere with the expression of specific transporter proteins, such as shRNA or siRNA, or by other similar means.
Animals and Cell Cultures. […]
(§1) Fluorescence Measurements. Nickel-purified proteins were resuspended at 100 nM in an intracellular buffer containing (mM): 10 NaCl, 130 KCl, 1.25 MgSO4 and 10 HEPES, pH 7.0, and measured with a microplate reader analyzer (EnVision, PerkinElmer). […]

[3] = test system: mitochondrial pyruvate consumption in HEK293 cells; experiment: Rate of mitochondrial pyruvate consumption, pyruvate as exclusive substrate, after MCT blockage; format: cell-based
[4] = test system: HEK293 cells; experiment: Rate of cellular pyruvate production after MCT blockage; format: cell-based
Description: In this second embodiment cells are incubated under physiological concentrations of glucose, lactate and pyruvate, and with the information obtained in the calibration step and the known sensitivity of surface pyruvate transporters to specific inhibitors, the steady-state of pyruvate is acutely disrupted by blocking the function of pyruvate transporter, for example by addition of a pharmacological blocker of the pyruvate transporter. In mammalian cells, the pyruvate transporter is the MCT and can be blocked with phloretin, parachloromercurybenzoate, AR-C155858, anti-MCT antisera, or other suitable compounds. […] If the cell is a net pyruvate importer, application of the MCT-blocker causes a fall in intracellular pyruvate concentration, the initial rate of which is equal to the rate of pyruvate consumption on the steady-state. […] A critical property of this sensor is that has a single component of binding so that it allows accurate quantitation of these rates. […]
as §1, with “PerkinElmer). The proteins were excited at 430 nm and the intensity of fluorescence emission of mTFP and Venus were recorded at 485 nm (FmTFP) and 528 nm (FVenus), respectively.” for “PerkinElmer).”

O=C(O)CC(O)(CC(=O)O)C(=O)O [citrate]
effect on the fluorescence ratio of the sensor ([1]; metabolite at 100 μM): very small | effect on the response of the sensor to pyruvate ([1]; metabolite at 100 μM): very small effect | effect on the fluorescence ratio of the sensor ([1]; metabolite at 1 mM): modest effect | effect on the response of the sensor to pyruvate ([1]; metabolite at 1 mM): significant effect

O=C(CCc1ccc(O)cc1)c1c(O)cc(O)cc1O [phloretin]
inhibition of initial rate of uptake of 1 mM pyruvate ([2]; blocker at 50 μM): strongly inhibited

O=C(O)CC(=O)C(=O)O [oxalacetate]
effect on the fluorescence ratio of the sensor ([1]; metabolite at 100 μM): very small | effect on the fluorescence ratio of the sensor ([1]; metabolite at 1 mM): modest effect

Cc1n[nH]c(C)c1Cc1sc2c(c1C(=O)N1C[C@H](O)CO1)c(=O)n(C)c(=O)n2CC(C)C [AR-C155858]
change in cytosolic pyruvate concentration after MCT blockage ([3]; cells deprived of glucose, high extracellular pyruvate): fall in the cytosolic pyruvate concentration | rate of decrease in intracellular pyruvate after MCT blockage ([3]; single HEK293 cell, pyruvate as exclusive substrate): 1.73 µM/s | inhibition of initial rate of uptake of 1 mM pyruvate ([2]; blocker at 1 μM): strongly inhibited | change in intracellular pyruvate after MCT blockage ([4]; HEK293 cells, blocker at 1 μM): increase in intracellular pyruvate | rate of accumulation of intracellular pyruvate after MCT blockage ([4]; single HEK293 cell): 0.72 µM/s
